Data taken from US5324747A, “N-substituted anilines, inhibitors of phospholipases A2” (Hoffmann-La Roche Inc., priority 1992, dated 1994).

Columns and labels:
[1] = system: Naja naja snake venom PLA2 (SV-PLA2); assay: Assay for inhibition of snake venom PLA2 (SV-PLA2) in vitro; assay type: biochemical; conditions: read-out: Inhib of SV-PLA2 IC50
Method: ASSAY FOR INHIBITION OF SNAKE VENOM PLA2 (SV-PLA2) IN VITRO
Several representative compounds of the invention were also tested as inhibitors of Naja naja snake venom PLA2 (SV-PLA2). The assay employed in this study was the spectrophotometric method described by: C. Vigo, G. P. Lewis and P. J. Piper in Biochemical Pharmacology, 29:623-627 (1983), which was modified as described by: A. F. Welton, L. D. Tobias, C. Fiedler-Nagy, W. Anderson, W. Hope, K. Meyers and J. W. Coffey in "Plant Flavonoids in Biology and Medicine: Biochemical, Pharmacological and Structure-Activity Relationships", p 231-242, (1986) Alan R. Liss, Inc. The PLA2 paw edema model, (data in Table I) is initiated by injection of SV-PLA2.

[2] = biological target: T1, HSF-PLA2 (Homo sapiens, UniProt P14555); assay: Assay for Inhibition of HSF-PLA2 In Vitro; assay type: biochemical; conditions: read-out: Inhib of HSF-PLA2 IC50
T1 construct: extracellular enzyme obtained from human synovial fluid (HSF-PLA2); from tissue; host or cells: pooled human synovial fluid, added at 0.1% (v/v)
T1 sequence (P14555 21-144): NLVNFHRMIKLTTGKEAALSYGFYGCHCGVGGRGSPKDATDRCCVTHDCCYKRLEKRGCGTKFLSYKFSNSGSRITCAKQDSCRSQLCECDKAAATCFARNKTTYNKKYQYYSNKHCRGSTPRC
Outline: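 Extracellular PLA2 isolated from human synovial fluid, incubated 30 min at 37 °C with 14C-labelled phospholipid substrate in duplicate. Lipids were chloroform-extracted, and released 14C-oleic acid was separated from substrate by silica TLC; a no-enzyme control was run in each experiment.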

[3] = system: Croton Oil Mouse Ear Edema; assay: Croton Oil Mouse Ear Edema Test; assay type: in vivo, CD-1 mice; conditions: topical, coapplied, 6 hours
Method: Twenty five μl of a 1% croton oil solution [dissolved in a mixture of pyridine/water/diethyl ether at a ratio of 5/20/75 (croton oil vehicle)] are applied to the outer side of the right ear of 3-4 week old made CD-1 mice (8 animals per group). The test compounds are dissolved directly in the 1% croton oil solution at various concentrations and coapplied. Control animals receive 25 μl of croton oil vehicle on the right ear. Biopsy punches are removed at 6 hours from the right ear of the animals using a 6 mm skin trephine (Roboz, Washington, D.C.) and the wet weight of the ear punches is determined. The weight of the biopsy punches is a measure of ear inflammation, primarily edema. The data are expressed as percent inhibition relative to control groups.

[4] = system: PLA2 Rat Paw Edema; assay: Phospholipase A2 Rat Paw Edema; assay type: in vivo, Lewis rats; conditions: for inhibition in vivo at 30 mg/kg: Rattus norvegicus, 2 hr, read-out: % Inhib of PLA2 Rat Paw Edema 2 hr (30 mg/kg)
Outline: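 Lewis rats (~200 g, n=7) dosed i.p. (in DMSO) or orally (in Labrafil M-1944CS) 1 h before subplantar injection of 5 ug Naja naja PLA2 into right hind paw. Paw volume by plethysmometry at 0.5, 2 and 4 hr minus baseline; % change versus vehicle, Student's t-test.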

[5] = system: adjuvant arthritis model in rats; assay: Established Adjuvant Arthritis Test; assay type: in vivo; conditions: 30 mg/kg ip
Method: Established Adjuvant Arthritis Test
Representative compounds of the invention were tested in the standard adjuvant arthritis model in rats, induced by Freunds complete adjuvant, as described by C. E. Brinckerhoff, J. W. Coffey and A. C. Sullivan, Science, 221, p. 756-758 (1983).

[6] = system: Acetic Acid-Induced Colitis in Rats; assay: Acetic Acid-Induced Colitis in Rats; assay type: in vivo, rats (Sprague-Dawley)
From the text: Acetic Acid-Induced Colitis in Rats The rat acetic acid-induced colitis bioassay has been described by J. E. Krawisz, et al. in Amer. J. Proc. Gastro. Col. Rec. Surg. 31: 11-18 (1980), and by P. Sharon and W. F. Stenson in Gastroenterology 88: 55-63 (1985) and 86:453-460 (1984). Acetic acid-induced colitis is characterized by the movement of inflammatory cells into the colon, with the number of such cells in the mucosa being measured by the activity of myeloperoxidase, a marker enzyme for these cells. Positive desirable activity is indicated by a reduction in the high levels of myeloperoxidase caused by acetic acid. […] The animals were administered a second dose of the test compound in the same amount about 16 hours later. Then 24 hours after the acetic acid treatment, the animals were sacrificed. The colonic mucosa was surgically removed and homogenized in an aqueous buffer at pH 6 with a Tissumizer or similar device and myeloperoxidase was measured in the homogenate using o-phenylenediamine as a cromagen, as described by […] and A. Bartlett in "The Enzyme Linked Immunosorbent Assay (ELISA)", Zoological Soc., London, 1979, pages 29-30. Control animals were pretreated with the vehicle and saline in place of acetic acid.

[7] = system: mouse skin; conditions: cited from earlier work

Structure (SMILES)	IC50 [1] [µM]	IC50 [2] [µM]	% Inhib of Croton Oil Mouse Ear Edema (1 mg) [3] [%]	inhibition in vivo at 30 mg/kg [4] [%]	Change in Paw Volume (mL) Treated [5] [mL]	% Inhibition of Myeloperoxidase Accumulation at 10 mg/kg po [6] [%]	% Inhib of PLA2 Rat Paw Edema 2 hr ([4]; (50 mg/kg)) [%]	TPA-mediated increase in epidermal PGE2 levels [7]	TPA-mediated induction of epidermal cell ornithine decarboxylase [7]
CCCCCCCCCCOc1cc(OCCCCCCCCCC)cc(N(CC(=O)O)CC(=O)O)c1 [Example 6, N-(Carboxymethyl)-N-[3,5-bis(decyloxy)phenyl]glycine]	0.017	0.24	13	45	-0.04 ± 0.24				
CCCCCCCCCCCCCCOc1cc(OCCCCCCCCCCCCCC)cc(N(CC(=O)O)CC(=O)O)c1 [Example 6e, N-(carboxymethyl)-N-[3,5-bis(tetradecyloxy)phenyl]glycine]		0.13				145 ± 72	44		
CCCCCCCCCCCCCCCCCCOc1cccc(N(CC(=O)O)CC(=O)O)c1 [Example 36, N -(Carboxymethyl)-N-[3-(octadecyloxy)phenyl]glycine]		0.17	21			190 ± 76			
CCCCCCCCCCNC(=O)c1cc(C(=O)NCCCCCCCCCC)cc(N(CC(=O)O)CC(=O)O)c1 [Example 16, N-(Carboxymethyl)-N-[3,5-bis[(decylamino)carbonyl]phenyl]glycine]	0.05	0.3	10	0		212 ± 124			
CCCCCCCCc1ccc(N(CC(=O)O)CC(=O)O)cc1 [Example 39c, N-(carboxymethyl)-N-(4-octylphenyl)glycine]	0.066	1.7							
CCCCCCCCOc1cc(OCCCCCCCC)cc(N(CC(=O)O)CC(=O)O)c1 [Example 6c, N-(carboxymethyl)-N-[3,5-bis(octyloxy)phenyl]glycine]	0.022	0.4	0	7					
COc1ccc2c(c1)c(CC(=O)O)c(C)n2C(=O)c1ccc(Cl)cc1 [Indomethacin]								prevented	prevented
CCCCCCCCCCCCOc1cc(OCCCCCCCCCCCC)cc(N(CC(=O)O)CC(=O)O)c1 [Example 6d, N-(carboxymethyl)-N-[3,5-bis(dodecyloxy)phenyl]glycine]	0.17	0.05	21						
